Like-named read-outs stand apart in the source and are kept apart here.
What was measured:
Assay in all cases: Off-target screening (CEREP)
Assay type in all cases: binding
Settings in all cases: read-out: percent inhibition
5HT1A = target: T1, 5HT1A (Homo sapiens, UniProt P08908)
T1 construct: purchased Eurofins CEREP SA
T1 sequence (P08908 1-422): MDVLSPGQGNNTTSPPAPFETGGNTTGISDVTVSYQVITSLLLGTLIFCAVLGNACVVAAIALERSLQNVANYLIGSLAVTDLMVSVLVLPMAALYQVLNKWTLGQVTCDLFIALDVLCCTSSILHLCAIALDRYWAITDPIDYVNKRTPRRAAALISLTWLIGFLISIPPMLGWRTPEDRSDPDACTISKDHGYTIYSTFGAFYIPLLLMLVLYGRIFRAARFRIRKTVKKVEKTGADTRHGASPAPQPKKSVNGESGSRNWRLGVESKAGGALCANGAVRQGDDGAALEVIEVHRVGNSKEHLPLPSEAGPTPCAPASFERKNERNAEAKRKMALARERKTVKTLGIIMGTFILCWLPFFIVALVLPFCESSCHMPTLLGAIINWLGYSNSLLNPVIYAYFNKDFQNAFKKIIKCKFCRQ
Procedure: (§1) Supplementary Table 1 │ Off-target activity screening f or MCP compou nds […]
(§2) The assays given in the table above were conducted at Eurofins CEREP S A (Celle-Lévescault, France) and were run as single point measurements in duplicates in the presence of 10 µ M of the test compound and reported as percent inhibition of the radioligand signal or control enzymatic activity. n.d., not

[1] = target: T2, Angiotensin II receptor 1 (Homo sapiens, UniProt P30556)
T2 construct: purchased Eurofins CEREP SA
T2 sequence (P30556 1-359): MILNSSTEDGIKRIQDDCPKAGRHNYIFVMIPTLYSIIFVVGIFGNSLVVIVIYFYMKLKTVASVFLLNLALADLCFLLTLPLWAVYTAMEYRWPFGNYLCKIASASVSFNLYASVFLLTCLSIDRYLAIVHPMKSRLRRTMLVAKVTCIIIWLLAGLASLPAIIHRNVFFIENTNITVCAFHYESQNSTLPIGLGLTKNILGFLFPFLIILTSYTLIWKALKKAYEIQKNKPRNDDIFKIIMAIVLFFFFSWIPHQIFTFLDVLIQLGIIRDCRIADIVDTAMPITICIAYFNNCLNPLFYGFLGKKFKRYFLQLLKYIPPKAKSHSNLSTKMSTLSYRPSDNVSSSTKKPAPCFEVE
Procedure: as §1, §2

Beta2-adrenoreceptor = target: T3, Beta2-adrenoreceptor (Homo sapiens, UniProt P07550)
T3 construct: purchased Eurofins CEREP SA
T3 sequence (P07550 whole entry): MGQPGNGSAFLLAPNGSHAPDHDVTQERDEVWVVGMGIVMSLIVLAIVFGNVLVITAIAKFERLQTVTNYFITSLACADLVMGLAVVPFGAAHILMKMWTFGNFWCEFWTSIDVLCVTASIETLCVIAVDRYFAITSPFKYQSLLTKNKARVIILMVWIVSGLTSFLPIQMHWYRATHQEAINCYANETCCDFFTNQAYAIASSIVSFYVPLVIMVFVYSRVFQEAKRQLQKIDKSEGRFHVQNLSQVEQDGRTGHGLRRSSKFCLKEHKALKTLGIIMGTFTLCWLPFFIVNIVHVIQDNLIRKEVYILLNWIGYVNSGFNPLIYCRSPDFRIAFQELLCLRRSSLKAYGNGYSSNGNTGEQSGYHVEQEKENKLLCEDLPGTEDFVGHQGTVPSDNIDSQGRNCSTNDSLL
Procedure: as §1, §2

Histamine H2 receptor = target: T4, Histamine H2 receptor (Homo sapiens, UniProt P25021)
T4 construct: purchased Eurofins CEREP SA
T4 sequence (P25021 whole entry): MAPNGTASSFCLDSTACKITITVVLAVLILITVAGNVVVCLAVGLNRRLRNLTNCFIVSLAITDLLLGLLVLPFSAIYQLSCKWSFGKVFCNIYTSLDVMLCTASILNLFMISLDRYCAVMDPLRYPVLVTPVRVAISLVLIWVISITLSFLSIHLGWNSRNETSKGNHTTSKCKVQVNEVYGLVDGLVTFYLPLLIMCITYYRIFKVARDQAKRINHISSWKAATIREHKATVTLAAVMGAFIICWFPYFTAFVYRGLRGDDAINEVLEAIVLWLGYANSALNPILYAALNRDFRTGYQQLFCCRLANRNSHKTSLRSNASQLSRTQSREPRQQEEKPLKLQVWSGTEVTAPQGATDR
Procedure: as §1, §2

Muscarinic receptor M2 = target: T5, Muscarinic receptor M2 (Homo sapiens, UniProt P08172)
T5 construct: purchased Eurofins CEREP SA
T5 sequence (P08172 1-466): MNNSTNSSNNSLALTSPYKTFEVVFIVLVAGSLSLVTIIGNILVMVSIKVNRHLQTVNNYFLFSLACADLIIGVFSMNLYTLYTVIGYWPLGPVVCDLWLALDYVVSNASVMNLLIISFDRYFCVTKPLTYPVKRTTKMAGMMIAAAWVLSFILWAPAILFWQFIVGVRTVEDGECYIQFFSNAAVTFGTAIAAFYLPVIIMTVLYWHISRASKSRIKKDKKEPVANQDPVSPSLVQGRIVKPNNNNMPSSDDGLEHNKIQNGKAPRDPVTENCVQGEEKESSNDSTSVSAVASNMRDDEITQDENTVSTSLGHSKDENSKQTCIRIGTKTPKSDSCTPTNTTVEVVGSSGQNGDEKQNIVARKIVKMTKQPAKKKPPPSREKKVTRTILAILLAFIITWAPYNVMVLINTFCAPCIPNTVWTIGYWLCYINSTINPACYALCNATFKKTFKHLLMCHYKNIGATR
Procedure: as §1, §2

Estrogen receptor alpha = target: T6, Estrogen receptor alpha (Homo sapiens, UniProt P03372)
T6 construct: purchased Eurofins CEREP SA
T6 sequence (P03372 whole entry): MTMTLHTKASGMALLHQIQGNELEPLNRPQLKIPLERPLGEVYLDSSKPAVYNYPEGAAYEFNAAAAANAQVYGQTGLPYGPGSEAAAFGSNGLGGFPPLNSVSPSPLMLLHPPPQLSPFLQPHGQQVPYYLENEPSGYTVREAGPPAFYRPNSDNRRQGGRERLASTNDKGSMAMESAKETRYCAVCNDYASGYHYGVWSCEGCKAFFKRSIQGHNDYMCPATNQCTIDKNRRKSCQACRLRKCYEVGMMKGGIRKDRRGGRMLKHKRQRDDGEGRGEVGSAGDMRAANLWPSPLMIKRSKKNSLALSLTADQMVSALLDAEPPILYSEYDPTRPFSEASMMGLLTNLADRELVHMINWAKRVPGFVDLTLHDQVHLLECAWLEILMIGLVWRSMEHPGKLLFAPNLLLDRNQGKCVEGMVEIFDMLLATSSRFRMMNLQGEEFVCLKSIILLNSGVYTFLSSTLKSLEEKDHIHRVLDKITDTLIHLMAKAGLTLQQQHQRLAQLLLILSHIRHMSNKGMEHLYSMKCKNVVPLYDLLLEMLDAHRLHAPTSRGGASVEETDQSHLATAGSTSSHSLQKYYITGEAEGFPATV
Procedure: as §1, §2

[2] = target: T7, Cholecystokinin 1 receptor (Homo sapiens, UniProt P32238)
T7 construct: purchased Eurofins CEREP SA
T7 sequence (P32238 1-428): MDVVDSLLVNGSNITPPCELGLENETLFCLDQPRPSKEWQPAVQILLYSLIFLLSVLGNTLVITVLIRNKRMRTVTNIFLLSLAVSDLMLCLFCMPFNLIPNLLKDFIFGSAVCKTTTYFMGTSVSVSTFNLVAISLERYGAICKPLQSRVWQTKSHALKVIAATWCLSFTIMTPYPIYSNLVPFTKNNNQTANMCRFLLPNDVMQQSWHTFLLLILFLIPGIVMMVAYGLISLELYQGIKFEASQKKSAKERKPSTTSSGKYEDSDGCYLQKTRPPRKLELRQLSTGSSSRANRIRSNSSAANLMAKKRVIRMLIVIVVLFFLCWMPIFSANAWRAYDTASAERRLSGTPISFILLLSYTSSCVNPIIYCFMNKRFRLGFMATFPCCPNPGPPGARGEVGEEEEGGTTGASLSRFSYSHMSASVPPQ
Procedure: as §1, §2

[3] = target: T8, Norepinephrine transporter (Homo sapiens, UniProt P23975)
T8 construct: purchased Eurofins CEREP SA
T8 sequence (P23975 whole entry): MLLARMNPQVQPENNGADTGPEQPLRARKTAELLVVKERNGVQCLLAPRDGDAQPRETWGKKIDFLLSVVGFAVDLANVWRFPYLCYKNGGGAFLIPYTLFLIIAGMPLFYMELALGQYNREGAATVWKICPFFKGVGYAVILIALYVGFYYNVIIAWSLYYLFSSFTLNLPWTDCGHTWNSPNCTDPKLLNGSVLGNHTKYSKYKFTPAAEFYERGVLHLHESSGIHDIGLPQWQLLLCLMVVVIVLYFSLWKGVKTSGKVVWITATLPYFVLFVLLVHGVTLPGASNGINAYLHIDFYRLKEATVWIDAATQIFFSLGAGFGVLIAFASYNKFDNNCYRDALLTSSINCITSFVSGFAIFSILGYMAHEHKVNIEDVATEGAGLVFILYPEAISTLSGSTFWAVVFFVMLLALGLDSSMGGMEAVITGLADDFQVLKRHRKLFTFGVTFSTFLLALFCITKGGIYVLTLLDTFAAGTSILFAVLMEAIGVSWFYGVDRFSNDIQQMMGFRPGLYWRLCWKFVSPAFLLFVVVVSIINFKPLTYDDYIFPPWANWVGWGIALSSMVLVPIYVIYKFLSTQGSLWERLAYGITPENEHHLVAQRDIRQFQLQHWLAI
Procedure: as §1, §2

5HT2B = target: T9, 5HT2B (Homo sapiens, UniProt P41595)
T9 construct: purchased Eurofins CEREP SA
T9 sequence (P41595 whole entry): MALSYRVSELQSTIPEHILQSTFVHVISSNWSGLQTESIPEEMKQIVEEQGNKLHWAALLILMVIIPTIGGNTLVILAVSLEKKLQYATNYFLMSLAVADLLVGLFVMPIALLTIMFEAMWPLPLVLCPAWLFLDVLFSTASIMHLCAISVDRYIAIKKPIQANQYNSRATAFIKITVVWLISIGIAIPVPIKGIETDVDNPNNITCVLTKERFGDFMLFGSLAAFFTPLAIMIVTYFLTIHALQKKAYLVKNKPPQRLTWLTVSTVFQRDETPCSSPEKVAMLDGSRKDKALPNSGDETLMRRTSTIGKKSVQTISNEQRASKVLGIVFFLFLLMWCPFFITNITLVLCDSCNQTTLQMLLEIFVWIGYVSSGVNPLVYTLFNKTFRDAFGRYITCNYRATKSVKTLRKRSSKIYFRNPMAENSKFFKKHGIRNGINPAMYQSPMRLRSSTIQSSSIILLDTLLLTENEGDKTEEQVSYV
Procedure: as §1, §2

Mu opioid receptor = target: T10, Mu opioid receptor (Homo sapiens, UniProt P35372)
T10 construct: purchased Eurofins CEREP SA
T10 sequence (P35372 whole entry): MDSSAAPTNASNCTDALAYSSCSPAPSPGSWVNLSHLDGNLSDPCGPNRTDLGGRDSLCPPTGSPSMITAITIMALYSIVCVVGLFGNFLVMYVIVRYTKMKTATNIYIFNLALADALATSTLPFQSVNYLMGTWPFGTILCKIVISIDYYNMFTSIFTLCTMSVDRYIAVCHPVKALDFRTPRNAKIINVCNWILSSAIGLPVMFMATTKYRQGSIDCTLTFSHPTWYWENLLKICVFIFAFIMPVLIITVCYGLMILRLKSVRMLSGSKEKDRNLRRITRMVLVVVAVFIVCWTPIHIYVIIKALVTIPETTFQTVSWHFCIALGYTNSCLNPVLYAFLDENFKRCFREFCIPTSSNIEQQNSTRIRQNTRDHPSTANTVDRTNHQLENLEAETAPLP
Procedure: as §1, §2

[4] = target: Glycine receptor, strychnine insensitive (Rattus norvegicus, UniProt P35439)
Sequence of Glycine receptor, strychnine insensitive (P35439 394-800): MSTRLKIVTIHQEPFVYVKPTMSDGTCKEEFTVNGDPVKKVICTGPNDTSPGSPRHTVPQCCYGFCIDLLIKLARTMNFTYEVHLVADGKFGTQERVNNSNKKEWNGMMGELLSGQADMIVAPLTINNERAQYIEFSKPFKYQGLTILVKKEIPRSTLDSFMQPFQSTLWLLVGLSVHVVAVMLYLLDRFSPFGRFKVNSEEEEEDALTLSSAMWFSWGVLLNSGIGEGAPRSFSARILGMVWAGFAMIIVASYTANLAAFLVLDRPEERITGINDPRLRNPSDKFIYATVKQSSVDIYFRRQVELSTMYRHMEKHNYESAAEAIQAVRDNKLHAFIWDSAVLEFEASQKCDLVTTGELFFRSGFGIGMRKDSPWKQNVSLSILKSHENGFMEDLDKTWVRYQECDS
Procedure: as §1, §2

Muscarinic receptor M1 = target: T11, Muscarinic receptor M1 (Homo sapiens, UniProt P11229)
T11 construct: purchased Eurofins CEREP SA
T11 sequence (P11229 1-460): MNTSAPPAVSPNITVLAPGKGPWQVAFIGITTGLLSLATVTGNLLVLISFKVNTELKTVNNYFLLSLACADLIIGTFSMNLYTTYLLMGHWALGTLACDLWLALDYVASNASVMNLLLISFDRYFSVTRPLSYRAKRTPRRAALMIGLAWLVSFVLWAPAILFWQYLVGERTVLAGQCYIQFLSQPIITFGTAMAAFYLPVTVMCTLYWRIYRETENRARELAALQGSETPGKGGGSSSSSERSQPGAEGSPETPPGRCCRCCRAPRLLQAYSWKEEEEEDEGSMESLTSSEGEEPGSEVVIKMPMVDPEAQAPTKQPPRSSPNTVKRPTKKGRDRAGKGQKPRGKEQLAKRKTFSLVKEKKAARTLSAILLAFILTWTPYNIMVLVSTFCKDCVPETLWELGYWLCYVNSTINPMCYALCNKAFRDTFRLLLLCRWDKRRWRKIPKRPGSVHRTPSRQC
Procedure: as §1, §2

Row | Compound | inhibition at 10 µM (5HT1A; 10 µM, duplicates) | inhibition at 10 µM ([1]; 10 µM, duplicates) | inhibition at 10 µM (Beta2-adrenoreceptor; 10 µM, duplicates) | inhibition at 10 µM (Histamine H2 receptor; 10 µM, duplicates) | inhibition at 10 µM (Muscarinic receptor M2; 10 µM, duplicates) | inhibition at 10 µM (Estrogen receptor alpha; 10 µM, duplicates) | inhibition at 10 µM ([2]; 10 µM, duplicates) | inhibition at 10 µM ([3]; 10 µM, duplicates) | inhibition at 10 µM (5HT2B; 10 µM, duplicates) | inhibition at 10 µM (Mu opioid receptor; 10 µM, duplicates) | inhibition at 10 µM [4] | inhibition at 10 µM (Muscarinic receptor M1; 10 µM, duplicates) | inhibition at 10 µM (5HT1A) | inhibition at 10 µM [1] | inhibition at 10 µM (Beta2-adrenoreceptor) | inhibition at 10 µM (Histamine H2 receptor) | inhibition at 10 µM (Muscarinic receptor M2) | inhibition at 10 µM (Estrogen receptor alpha) | inhibition at 10 µM [2] | inhibition at 10 µM [3] | other results
1 | CN1C(=O)[C@H](CCCN)NC(=O)[C@H](CCCN)NCc2ccccc2Sc2ccccc2CNC(=O)[C@@H]1Cc1c[nH]c2ccccc12 [RO7036668] | 33% | 14% | 3% | 12% | 14% | 24% | 22% | 43% | 27% | 63% | -27% | 26% |  |  |  |  |  |  |  |  | 
2 | CN1C(=O)[C@H](CCCCN)NC(=O)[C@H](CCCN)NCc2cccnc2Sc2c(Cl)ccc(Cl)c2CNC(=O)[C@@H]1Cc1c[nH]c2ccccc12 [RO7075573] |  |  |  |  |  |  |  |  |  |  | -29% |  | 11% | -7% | -7% | 11% | 11% | -3% | 32% | 1% | inhibition at 10 µM (5HT2B): 1%; inhibition at 10 µM (Mu opioid receptor): 21%; inhibition at 10 µM (Muscarinic receptor M1): 20%
3 | CN1C(=O)[C@H](CCCCN)NC(=O)[C@H](CCCN)NCc2cccnc2Sc2c(Cl)ccc(-c3ccc(C(=O)O)cc3)c2CNC(=O)[C@@H]1Cc1c[nH]c2ccccc12 [RO7202110] | 13% | 14% | -11% | 3% | -1% | -7% | 0% | 14% | 14% | 26% | -25% | -6% |  |  |  |  |  |  |  |  | 
4 | CN1C(=O)[C@H](CCCCN)NC(=O)[C@H](CCCN)NCc2cccnc2Sc2cccc(-c3ccc(C(=O)O)cc3)c2CNC(=O)[C@@H]1Cc1c[nH]c2ccccc12 [zosurabalpin] |  |  |  |  |  |  |  |  |  |  | 15% |  | 0% | 6% | 6% | -2% | 17% | 7% | -1% | 12% | inhibition at 10 µM (5HT2B): -1%; inhibition at 10 µM (Mu opioid receptor): 4%; inhibition at 10 µM (Muscarinic receptor M1): -3%
